In publication PMC5294416, “Novel peptides for deciphering structural and signalling functions of E-cadherin in mouse embryonic stem cells” (Scientific Reports, 2017):
Entries after “also recorded” stand apart in the source; their conditions may differ.

Tests used:
wtD3 mESCs [1] = details: mESC cell line; cited from earlier work
From the text: (§1) E-cadherin provides an attractive target to manipulate ESCs in culture since cell signalling mediated through this protein has significant effects on both ESC pluripotent states and survival. We have previously shown that abrogation of E-cadherin-mediated cellular aggregation allows culture of mESCs in shake flask bioreactors whilst retaining pluripotency, either through gene knockout or an inhibitory antibody DECMA-1[16]. However, utilisation of E-cadherin neutralising Abs for ESC culture is expensive and more cost-effective E-cadherin inhibitors are required before this technique becomes com ...

[2] = system: STAT3 phosphorylation in wtD3 mESCs; details: mESC; cited from earlier work
From the text: as §1

MCF-7 = MCF-7 cell line; cited from earlier work
From the text: as §1

pERK1/2 in wtD3 mESCs = assay: Western blot analysis of phosphorylated ERK1/2; assay type: cell-based, mouse
[3] = system: OCT4 protein in wtD3 mESCs; assay: Immunofluorescence microscopy analysis of OCT4 protein expression with pathway inhibitors; assay type: cell-based, mouse
Method: (§2) Unless otherwise stated, mESC lines were grown on gelatinised tissue culture grade 6-well plates at 37 °C/5% CO2, as previously described. mESCs cells were treated with 10 μM peptide in mESC culture medium which was replenished every 24 h. Inhibition of specific pathways in mESCs was achieved by incubation with 10 μM LY294002 (PI3K inhibitor), PD9805 (MEK inhibitor) and SB431542 (TGFβ1 R inhibitor).
(§3) Monolayer cultured mESCs were fixed in situ in 4% w/v PFA in PBS for 30 minutes at room temperature, washed twice with PBS and blocked with 1% goat serum in 0.1% w/v BSA, 0.1% Triton X-100 in PBS for 30 minutes. Cells were incubated in the appropriate primary antibody in goat blocking buffer for two hours at RT. Cells were washed three times in PBS and incubated in the appropriate Alexa fluor-488 or −546 conjugated secondary antibody at RT for 1 hour in the dark. Cells were washed three times with PBS, mounted in 4′6-diamidino-2-phenylindole (DAPI) (Vector Laboratories) and visualized using a Leica DM6000B fluorescence microscope (Leica Microsystems) and processed using Leica LAS X Core software (Leica Microsystems). Primary antibodies: anti-Nanog, 1:200 dilution (ab80892, Abcam Plc, Cambridge, UK); anti-Oct4, 1:200 dilution (ab19857, Abcam Plc, Cambridge, UK). For immunofluorescence microscopy analysis of fluorescent-tagged peptides, cells were incubated in 500 μM peptide in cell culture medium for 15 minutes, washed twice in ice cold PBS and mounted with Vectorshield containing DAPI. Cells were visualized using a Leica DM6000B fluorescence microscope (Leica Microsystems) and processed using Leica LAS X Core software (Leica Microsystems).
(§4) Images were imported into ImageJ and fluorescence intensity measured using the Analyse > Measure function on areas selected using the rectangular or oval selection icons.

[4] = system: STAT3 phosphorylation in wtD3 mESCs; assay: Western blot analysis of phosphorylated STAT3; assay type: cell-based, mouse
Method: as §2
(§5) Cells were harvested using cell dissociation buffer, centrifuged and washed with PBS prior to lysis using Radioimmunoprecipitation (RIPA) buffer (Sigma) containing protease inhibitor cocktail tablets (1 tablet per 10 ml RIPA buffer) (Roche Applied Science) at a concentration of 2 × 10^7 cell/ml. Lysates were separated by SDS-PAGE and electrotransferred onto nitrocellulose membrane as previously described. The membrane was probed using the appropriate primary antibody with subsequent incubation with HRP-conjugated secondary antibody. The membrane was exposed to an autoradiographic film (Hyperfilm ECL, GE Healthcare, Amersham, UK) for the appropriate time period in an X-ray cassette before the film was manually developed in a dark room using Kodak GBX developer and fixer solutions (Sigma, Dorset, UK). Primary antibodies: anti-α-tubulin, 1:2000 dilution (T9026, Sigma, Dorset, UK); anti-AKT, 1:200 dilution (#9272, Cell Signalling Technology, MA, USA); anti-pAKT (Ser473), 1:200 (#4060S, Cell Signalling Technology, MA, USA); anti-STAT3, 1:200 dilution (SC-482, Santa Cruz Biotechnology Inc, TX, USA); anti-pSTAT3, 1:200 dilution (#9138S, Cell Signalling Technology, MA, USA).

mESCs = assay: Cell viability in monolayer culture; assay type: cell-based, mouse; details: data not shown
[5] = system: Nanog, Klf4, Tbx3, Esrrb, Nr0b1, Nr5a2 and Tet1 transcripts in wtD3 mESCs; assay: qPCR analysis of pluripotency transcript expression; assay type: cell-based, mouse
Method: as §2
Primers for qPCR were designed using the Roche Applied science Universal Probe Library software and BLAST screened for sequence specificity. Only primers producing a single dissociation peak were used. RNA was extracted from mESCs and cDNA at a concentration of 2 ng/μl was used for analysis in a MicroAmp Optical 96-well Reaction Plate (Applied Biosystems) using SYBR green Jumpstart Taq ReadyMix (Applied Biosystems). Primer sequences: 18srRNA Forward (F) […], Reverse (R) […]; ESRRB F-[…], R-[…]; KLF4 F-[…], R-ATGTCCGCCAGGTTGAAG; NANOG F-[…], R-[…]; NR0B1 F-[…], R-[…]; NR5A2 F-[…], R-[…]; TBX3 F-[…], R-[…]; TET1 F-[…], R-[…].

[6] = system: Akt phosphorylation in mESCs; assay: Akt phosphorylation in treated mESCs; assay type: cell-based, mouse; details: data not shown
Method: as §5

wtD3 mESCs [7] = assay: Loss of cell-cell contact, phase contrast microscopy; assay type: cell-based, mouse
Method: as §2

[8] = system: NANOG protein in wtD3 mESCs; assay: Immunofluorescence microscopy analysis of NANOG protein expression; assay type: cell-based, mouse; details: 96 h / 4 days where stated
Method: as §3, with “For immunofluorescence microscopy analysis of fluorescent-tagged peptides, cells were incubated in 500 μM peptide in cell culture medium for 15 minutes, washed twice in ice cold PBS and mounted with Vectorshield containing DAPI.” left out
as §4

[9] = target: T1, recombinant mouse E-Cadherin Fc Chimera (Mus musculus, UniProt P09803); assay: Biacore SPR equilibrium binding analysis (affinity capture)
T1 construct: purchased R&D Systems
Method: Biacore SPR analysis was used to measure the interaction between peptides and recombinant mouse E-Cadherin Fc Chimera (R&D Systems). Analytes were passed over an HTE chip with surface bound His-tagged Recombinant Mouse E-Cadherin Fc Chimera (R&D Systems). The kinetics of interaction, i.e. the rates of complex formation (ka) and dissociation (kd), were determined and Integrin α4β7 protein was used as a control. Analysis was performed by the Biomolecular Analysis Core Facility (The University of Manchester, UK) on a Proteon XPR-36 protein interaction array system (Bio-Rad) using a HTE chip for high capacity His-tagged protein capture (Bio-Rad). Equilibrium analysis runs were performed three times and an average KD was calculated. Running buffer: HBS/0.02%, Tween/2 mM, CaCl2/1 mM MgCl2.

[10] = transcript, mESCs, Fig. 6a summary

In the case of “H-SWELYYPLRANL-NH2 [Epep, H-SWELYYPLRANL-NH2]”, the “inhibition of E-cadherin mediated cell-cell contact” value (wtD3 mESCs [1]) is listed as “inhibit E-cadherin mediated cell-cell contact”, the “phosphorylation of STAT3” value [2] is listed as “abrogate phosphorylation of STAT3” and the “inhibition of E-cadherin mediated cell-cell contact” value (MCF-7) is listed as “inhibit E-cadherin mediated cell-cell contact”. The “pERK1/2 compared to untreated mESCs” value (pERK1/2 in wtD3 mESCs) was “decreased pERK1/2”, the “OCT4 protein expression in the presence of SB431542” value ([3]; peptide-treated wtD3 mESCs plus Activin/Nodal inhibitor SB431542, after 5 days) was “maintained expression of OCT4 protein” and the “OCT4 protein expression in the presence of SU5402” value ([3]; peptide-treated wtD3 mESCs plus FGFR1 inhibitor SU5402, after 5 days) was “maintained expression of OCT4 protein”. The “Loss of pStat3” value ([4]; mESCs, Fig. 6a summary) was “YES”, the “Effect on STAT3 phosphorylation (in words)” value ([4]; wtD3 mESCs vs control treated cells, western blot) was “decreased STAT3 phosphorylation within 24 h; also recorded: significantly decreased phosphorylation of STAT3” and the “cell viability in monolayer culture” value (mESCs) was “no significant difference in cell viability”. The “Transcripts restored to control levels after removal of inhibitor” value ([5]; mESCs, 24 h post-removal) was “Nanog, Esrrb, Tbx3 and Tet1”, the “Loss of ESRRB” value [5, 10] was “YES” and the “Loss of Klf4” value [5, 10] was “YES”. For the same substance, the “Loss of Nanog” value [5, 10] was “YES”, the “Loss of Nr0b1” value [5, 10] was “YES” and the “Loss of Nr5a2” value [5, 10] was “YES”. For the same substance, the “Loss of TBX3” value [5, 10] was “YES”, the “Transcripts with decreased expression compared to control (qPCR)” value ([5]; wtD3 mESCs, 10 μM peptide, 24 h) was “Nanog, Klf4, Tbx3, Esrrb, Nr0b1, Nr5a2 and Tet1” and the “Transcripts remaining significantly decreased after removal of inhibitor” value ([5]; wtD3 mESCs, 24 h following removal) was “Klf4, Nr0b1 and Nr5a2”. The Akt phosphorylation [6] was “no changes in Akt phosphorylation”, the “Loss of cell-cell contact (10μM)?” value (wtD3 mESCs [7]; mESCs, 10 μM, Fig. 6a summary) was “YES” and the “Effect on cell-cell contact (in words)” value (wtD3 mESCs [7]; wtD3 mESCs, 10 μM peptide, 24 h, phase contrast) was “loss of cell-cell contact after 24 h; also recorded: loss of cell-cell contact within 24 h”. The “Cell-cell contact after removal of the inhibitor” value (wtD3 mESCs [7]; wtD3 mESCs, 24 h post-removal of treatment) was “restoration of cell-cell contact; also recorded: reversible”, the NANOG protein expression [8] was “decreased NANOG protein expression” and the Kd ([9]; equilibrium analysis using affinity capture on HTE chip, peptide stock in water, average of three runs, running buffer HBS/0.02% Tween/2 mM CaCl2/1 mM MgCl2) was 3400 nM. It also gave a Kd ([9]; peptide dissolved in 10%v/v DMSO/H2O, equilibrium analysis using affinity capture) of 1150 nM.
